We go through 88 molecules from a melting point compilation (Tetko et al.; mined from patent text by program, amines drawn as free bases though some values may be those of a salt).

A value given as a limit tells only on which side of the number the result lay.

Regarding `Cc1ccc(-c2ccccc2CC(N)=NO)cc1`, the melting point fell in the range of 127 to 128 °C.

Molecule `CCc1c(OC)nc2nc(C(N)=S)cn2c1C` had a melting point of 248 to 259 °C.

For the molecule `C[C@@H]1CNC(=O)c2cc3cc(F)cc(Br)c3n21`, the melting point was 188 °C.

As to `CN(C)CCOCC(O)c1ccc2cc(OCc3ccccc3)ccc2c1` (stereo not drawn), the melting point amounted to 100 °C.

`CS(=O)(=O)c1ccc(-c2cc(C(CCCO[N+](=O)[O-])=NO)nn2-c2ccccc2)cc1` showed a melting point of 128 to 130 °C.

Turning to `CC1(C(=O)Nc2ccc(-n3nc(C(F)(F)F)cc3C(F)(F)F)cc2)CC1(Cl)Cl` (stereo not drawn), the melting point lay in the range of 143 to 145 °C.

In turn, `Oc1ccc(-c2cc3cc(O)ccc3o2)cc1` yielded a melting point of 218 to 222 °C.

Molecule `CC(=O)NCC=Cc1ccc2ncnc(Nc3ccc(Oc4ccc(C)nc4)c(Cl)c3)c2c1` had a melting point of 254 to 256 °C.

Turning to `COC1(c2cccc(S(=O)(=O)c3ccc4c(c3)sc(=O)n4C)c2)CCOCC1`, the melting point was in the range of 174 to 176 °C.

In turn, `COC(=O)c1cc(C)cc(CC#N)c1` came in with a melting point of 56.2 to 57.8 °C.

`Cc1c(Br)nc(Nc2ccc(C#N)cc2)c(=O)n1C` gave a melting point of 254 to 255 °C.

For `Fc1ccc(-c2nccc(Oc3cccc(C(F)(F)F)c3)n2)cc1`, the melting point was 52 °C.

`CCCCCCCCCCCCCC(=O)OCC1OC(n2cc(F)c(=O)n(C(=O)c3ccc(C)cc3)c2=O)CC1OC(=O)CCCCCCCCCCCCC` (stereo not drawn) displayed a melting point of 76 to 77 °C.

Molecule `COC(=O)C(C(=O)OC)=C(C)N` came in with a melting point of 81 to 82 °C.

In the case of `CCN1c2ncc(CCc3ccnc(C)c3)cc2C(=O)N(C)c2ccc(Cl)nc21`, the melting point lay in the range of 94 to 96 °C.

As to `N#Cc1ccc(-c2ccc(-c3ccn([C@H](CC(=O)O)C(=O)N[C@H](CO)Cc4ccccc4)c3)cc2)cc1`, the melting point lay in the range of 189 to 192 °C.

Regarding `CC(C)(C)c1nn(C(C)(C)C)c(N)c1C#N`, the melting point lay within 78 to 80 °C.

`COCc1nc2c3c(ccn2c1C)[C@@H](O)[C@H](O)[C@@H](c1ccccc1)N3` returned a melting point of 102 to 104 °C.

In the case of `CCc1ccnc(C(=O)c2[nH]c3cc(Cl)ccc3c2CC(=O)O)c1Cl`, the melting point was determined as 158 °C.

Turning to `CCOCCc1c(-c2ccccc2)n2nnnc2n2ncnc12`, the melting point stood at 114 °C.

`O=c1c2[nH]c(N(S(=O)(=O)c3ccccc3)S(=O)(=O)c3ccccc3)nc2n(CC2CC2)c(=O)n1CC1CC1` came in with a melting point of 238 °C.

Molecule `O=C(CCl)c1cc(Br)ccc1O` had a melting point of 79 °C.

Molecule `CCS(=O)(=O)c1ccc(COc2cccc3c2CN(C2CCC(=O)NC2=O)C3=O)cc1` (stereo not drawn) registered a melting point of 248 to 250 °C.

In the case of `CCOC(=O)c1c(N)c2cccnc2n(CC(C)C)c1=O`, the melting point lay within 157 to 159 °C.

`O=C(O)CCc1cc2cc(Cl)ccc2n1S(=O)(=O)c1ccc(Oc2ccccc2)cc1` displayed a melting point of 70 to 75 °C.

`COc1ccc(S(=O)(=O)NC(C)c2cc(F)ccc2-c2ccccc2F)cc1` (stereo not drawn) returned a melting point of 133 to 135 °C.

Molecule `CC1(C)OC(c2ccc(S(C)(=O)=O)cc2)=C(c2cc3ccccc3o2)C1=O` returned a melting point of 140 to 141 °C.

With `CCOC(=O)C(=O)c1ccc(OCC(=O)N2CCOCC2)cc1`, the melting point fell in the range of 103 to 106 °C.

On to `COc1ccnc(CS(=O)c2nc3cc(OC(F)F)ccc3n2S(=O)(=O)c2ccc(Cl)cc2)c1OC` (stereo not drawn), for which the melting point lay within 82 to 83 °C.

Molecule `COc1cc2nc(N)nc(-c3cccc(Br)c3)c2cc1OC` returned a melting point of 246 to 249 °C.

`CCCc1nc(C(C)C)c(C(=O)OCc2ccc(-c3ccccc3C(=O)C(=O)O)cc2)[nH]1` had a melting point of 177 to 178 °C.

`O=C(O)CC1CCC(N2CCN(CCNc3ccncc3)CC2)CC1` (stereo not drawn) had a melting point of 220 °C.

`CC1CCCC(C)C1=CC1C(C(=O)O)C1(C)C` (stereo not drawn) had a melting point of 96 °C.

For `CSCC[C@H](NC(=O)OCc1ccccc1)C(=O)[C@@H](C(N)c1ccccc1)[C@H](O)C(=O)N1C[C@@H](Cl)C[C@H]1C(=O)NC(C)(C)C` (stereo partly drawn), the melting point lay in the range of 81 to 88 °C.

`NC(=O)c1cc(-c2ccc3nnn(Cc4ccc5ncccc5c4)c3n2)ccc1F` gave a melting point of 262 to 264 °C.

`CCCc1cc2c(=O)[nH]c(C(=O)OCC)nc2s1` came in with a melting point of 169 to 170 °C.

Take `C1=C(c2ccccc2)CCN(C2CC=C(c3ccccn3)CC2)C1` (stereo not drawn): the melting point lay within 143 to 144 °C.

In the case of `CCOC(=O)C(CC)(CC)CCS(N)(=O)=O`, the melting point was in the range of 93 to 94 °C.

Molecule `CN(CCN(O)C(N)=O)Cc1cccc(Oc2cc(Cl)cc(Cl)c2)c1` showed a melting point of 111 to 113 °C.

Regarding `NN1C(=O)c2ccc(Cl)cc2C1=O`, the melting point was in the range of 172 to 175 °C.

The molecule `Cc1nnc2n1-c1sc(CCc3ccccc3)cc1C(c1ccccc1Cl)=NC2` came in with a melting point of 106 to 108 °C.

Consider `CCOC(=O)c1cccc2nc(C)n(Cc3ccc(-c4ccccc4-c4nnn[nH]4)cc3)c12`, for which the melting point was in the range of 205 to 206 °C.

As to `C[C@H](NC(=O)c1ccc(N)cc1F)C(=O)O`, the melting point fell in the range of 244 to 248 °C.

Turning to `COC(=O)c1ccc(NC(=O)c2ccc(Br)nc2)nc1`, the melting point is 173 to 174 °C.

`COc1cc(-c2ccc(O)c(C3(C)CCCCC3)c2)cc(CC2SC(N(C)C)=NC2=O)c1OC` (stereo not drawn): the melting point fell in the range of 187 to 188 °C.

Molecule `Cc1cc(-c2cc3c(cc2F)c(=O)c(C(=O)O)cn3C2CC2)cc(CO)n1` had a melting point of 270 to 272 °C.

`CCOC1CC2(C)C(CCC3C4CCC(C(=O)OC)C4(C)CC(NC4CCCCC4)C32)CC1O` (stereo not drawn): the melting point lay in the range of 110 to 112 °C.

In the case of `O=C(O)c1cccc2ccc(CBr)cc12`, the melting point fell in the range of 210 to 211 °C.

In turn, `CC(C)OC(=O)c1ccc(Cl)cc1S(N)(=O)=O` gave a melting point of 140 to 142 °C.

As for `O=C(O)C1Cc2cc(CCNS(=O)(=O)c3ccccc3)ccc2O1` (stereo not drawn), the melting point lay in the range of 132 to 133 °C.

In turn, `COCc1ccc(OCC(=O)O)c(NC(=O)c2ccc(OCCCCc3ccccc3)cc2)c1` registered a melting point of 126 to 129 °C.

`COc1cc(Cc2cc3cc(Cl)ccc3n2S(=O)(=O)c2ccc(C(C)C)cc2)ccc1C(=O)O` gave a melting point of 67 °C.

The molecule `CN(c1cccc2cc(C3=NCC(CC(N)=O)S3)[nH]c12)S(=O)(=O)c1cccs1` (stereo not drawn) yielded a melting point of 193 to 194 °C.

As to `COc1ccc2c(c1)c(=O)[nH]c1c2c2ccccc2n1C`, the melting point was 250 °C.

As to `Cc1cc(Cl)ccc1N=Cc1ccc(Cl)cc1`, the melting point was 75 to 76 °C.

Turning to `O=C1c2ccccc2C(=O)N1CCCN1CCC(c2noc3cc(F)ccc23)CC1`, the melting point was in the range of 128 to 130 °C.

`CC(C)(C)OC(=O)N1CCC(NC(=O)c2ccc(-n3cc4ccccc4n3)cc2)CC1` returned a melting point of 202 to 204 °C.

As to `CCOC(=O)Cc1c(C)n(Cc2cccc(OC)c2)c2ccc(OC)cc12`, the melting point fell in the range of 88 to 90 °C.

As to `Cc1nc(C#N)ccc1OC1SCC(O)C(O)C1O` (stereo not drawn), the melting point fell in the range of 193 to 195 °C.

The molecule `CCCCCCCCCCc1ccc2cc(OS(=O)(=O)C(F)(F)F)c(SC)cc2c1` displayed a melting point of 42 to 42.9 °C.

`CCC(Cl)Cc1sc(O)nc1C` (stereo not drawn) yielded a melting point of 84 to 85 °C.

As for `C#CCN1CC(=O)NC1=O`, the melting point lay in the range of 124 to 125 °C.

Take `CCOC(=O)c1cn(C2CC2)c2c(CSCC)c(N3CCOCC3)c(F)cc2c1=O`: the melting point was in the range of 165 to 167 °C.

In the case of `O=C(Nc1ccc(-n2nc(C(F)(F)F)cc2C(F)(F)F)cn1)c1ccccc1F`, the melting point lay in the range of 153 to 155 °C.

`COc1nc(-c2ccc(OC(C)C)cc2)sc1C(=O)O` returned a melting point of 109 to 110 °C.

Take `COc1ccc(C2(C#Cc3ccc([N+](=O)[O-])cc3)CCC3(CC2)OCCO3)cc1OC1CCCC1`: the melting point was in the range of 58 to 59 °C.

For `CCOC(=O)c1ncn2c1CN=C(c1ccccc1F)c1cc(Br)ccc1-2`, the melting point fell in the range of 200 to 202 °C.

For `COc1nccc(C(F)(F)F)c1S(=O)(=O)Nc1nc2c(OC)cnc(OC)n2n1`, the melting point lay in the range of 214 to 216 °C.

As to `CCOC(=O)c1cc(/C=C/c2ccc(O)cc2)ccc1O`, the melting point fell in the range of 269 to 271 °C.

Turning to `CCOCCN(CCOCC)C(=O)c1n[nH]c2c(=O)[nH]c3cc(Cl)ccc3c(=O)c12`, the melting point turned out to be 202 °C.

Molecule `Nc1ncnc2c1ncn2[C@H]1C=C[C@@H](O)C1` (racemic) displayed a melting point of 180 °C.

`CCOC(=O)c1cc2c(OC=O)c(OC[C@H]3CO3)ccc2[nH]1`: the melting point was 123 to 125 °C.

`Cc1ccc(C(=S)c2cc(C(C)(C)C)c(O)c(C(C)(C)C)c2)cc1`: the melting point lay in the range of 135 to 136 °C.

The molecule `CC1(C)C(=O)Nc2cc3[nH]c(-c4ccc(-n5ccnc5)cc4)nc3cc21` displayed a melting point of 300 °C.

For the molecule `CCOP(=O)(OCC)c1c(-c2c(OC)ccc3ccccc23)cc2c(c1C)COC2`, the melting point lay within 68 to 69.9 °C.

In turn, `COc1ccc(C(=C/C=C/C(=O)NCCCCc2cccnc2)c2ccc(OC)c(OC)c2)cc1OC` came in with a melting point of 145 to 146 °C.

With `Cc1cccc(NC(=O)c2ccccc2)c1Cl`, the melting point was 125 to 126 °C.

In turn, `CCc1ncnc(NC2CCc3cc(OC)ccc3C2)c1Cl` (stereo not drawn) came in with a melting point of 70 to 71 °C.

`NS(=O)(=O)c1cccc2c1c([N+](=O)[O-])cc1nc(O)c(O)nc12` returned a melting point of 360 °C.

On to `COc1cccc2c1CN(c1c(F)c(F)c3c(=O)c(C(=O)O)cn(C4CC4)c3c1F)C2`, for which the melting point is over 280 °C.

The molecule `O=S(=O)(c1ccc(O)cc1)N1CCCC1` returned a melting point of 122 to 125 °C.

With `NS(=O)(=O)c1cc2ccc(O)cc2c(S(N)(=O)=O)c1-c1cccc(Cl)c1O`, the melting point was in the range of 135 to 137 °C.

Turning to `CSc1ccc2ccc3ccccc3c(=O)c2c1`, the melting point was 66.5 to 67.5 °C.

Molecule `CC(C)COC(=O)Nc1ccc(Br)cc1` yielded a melting point of 95 to 96 °C.

With `CCCCOc1ccc(Cl)cc1C(=O)NCc1ccc(CC(=O)O)cc1`, the melting point turned out to be 172 °C.

`COc1cccc2c1nc(C(F)F)n2-c1nc(Nc2ccc(Cl)nc2)nc(N2CCOCC2)n1` registered a melting point of 260 to 262 °C.

Turning to `CCCc1c(OCCCSc2ccc(C(=O)CCCCC(=O)O)cc2)ccc(C(C)=O)c1O`, the melting point lay within 130 to 132 °C.

Molecule `CC(=O)N1CCC(c2nc3n(C4CCCC4)[nH]c(C)c-3c(=O)n2)CC1` returned a melting point of 176 to 178 °C.
